In ChEMBL document CHEMBL5244230, “Artemisinin-derived hybrids and their anticancer activity” (Eur J Med Chem, 2020):
Several values for one entry are separate records, joined by “and”; a condition that tells them apart may be missing. Identical values can stand only once.

Tests used:
Format in all cases: functional, cell-based
[1] = system: SMMC-7721; assay: Antiproliferative activity against human SMMC-7721 cells
[2] = system: Hep 3B2; assay: Antiproliferative activity against human Hep3B cells assessed as reduction in cell viability
[3] = system: HepG2; assay: Antiproliferative activity against human HepG2 cells assessed as reduction in cell viability; settings: hepg2
[4] = system: OVCAR-3; assay: Antiproliferative activity against human OVCAR-3 cells assessed as reduction in cell viability
[5] = system: A2780; assay: Antiproliferative activity against human A2780 cells assessed as reduction in cell viability
[6] = system: HL-60; assay: Anticancer activity against human HL-60 cells
[7] = system: MCF7; assay: Anticancer activity against human MCF7 cells assessed as inhibition of cell growth
[8] = system: MCF7; assay: Anticancer activity against human MCF7 cells
[9] = Anticancer activity against human Lu1 cells
[10] = system: P388; assay: Anticancer activity against mouse P388 cells
[11] = system: A549; assay: Antiproliferative activity against human A549 cells assessed as reduction in cell viability measured for 24 hrs; settings: A549, 24 h
[12] = system: PC-3; assay: Antiproliferative activity against human PC-3 cells assessed as reduction in cell viability measured for 24 hrs; settings: PC-3, 24 h
[13] = system: SGC-7901; assay: Antiproliferative activity against human SGC-7901 cells assessed as reduction in cell viability measured for 24 hrs; settings: SGC-7901, 24 h
[14] = system: HT-29; assay: Antiproliferative activity against human HT-29 cells
[15] = system: EL4; assay: Antiproliferative activity against mouse EL4 cells
[16] = system: HeLa; assay: Cytotoxicity against human HeLa cells assessed as cell viability incubated for 48 hrs by MTT assay
[17] = system: HCT-116; assay: Antiproliferative activity against human HCT-116 cells assessed as reduction in cell viability; settings: Homo sapiens, HCT-116
[18] = system: HeLa; assay: Antiproliferative activity against human HeLa cells assessed as reduction in cell viability
[19] = system: KB; assay: Antiproliferative activity against human KB cells
[20] = system: HepG2; assay: Antiproliferative activity against human HepG2 cells
[21] = system: Ca9-22; assay: Cytotoxicity against human Ca9-22 cells
[22] = system: HSC-2; assay: Cytotoxicity against human HSC-2 cells
[23] = system: HCT-116; assay: Antiproliferative activity against human HCT-116 cells
[24] = system: A549; assay: Antiproliferative activity against human A549 cells
[25] = system: MV4-11; assay: Antiproliferative activity against human MV4-11 cells

Work on `C[C@H]1[C@H](N2CCS(=O)(=O)[C@H](CCCCCCOC(=O)c3ccc([N+](=O)[O-])cc3C(=O)O)C2)O[C@@H]2O[C@@]3(C)CC[C@H]4[C@H](C)CC[C@@H]1[C@@]24OO3` yielded an IC50 [1] of 60 nM.
With `CCN(CC)c1ccc2cc(C(=O)NCCNC(=O)CN3CCN(CCC[C@H]4O[C@@H]5O[C@@]6(C)CC[C@H]7[C@H](C)CC[C@@H]([C@H]4C)[C@@]57OO6)CC3)c(=O)oc2c1` the IC50 [2] was 2330 nM, the IC50 [3] was 2330 nM and 6280 nM and the IC50 [4] was 2330 nM. It also gave an IC50 [5] of 2330 nM.
For `CCN(CC)c1ccc2cc(C(=O)N3CCN(C(=O)CN4CCN(CCC[C@H]5O[C@@H]6O[C@@]7(C)CC[C@H]8[C@H](C)CC[C@@H]([C@H]5C)[C@@]68OO7)CC4)CC3)c(=O)oc2c1`, the IC50 [2] was 2330 nM, the IC50 [3] was 2330 nM and 6280 nM and the IC50 [4] was 2330 nM. For the same molecule, the IC50 [5] was 2330 nM.
For `C[C@H]1[C@@H](OCCc2cn(-c3cccc(C(=O)N4CCCCC4)c3)nn2)O[C@@H]2O[C@@]3(C)CC[C@H]4[C@H](C)CC[C@@H]1[C@@]24OO3`, the IC50 [6] was 5700 nM, the IC50 [7] was 5700 nM and the IC50 [8] was 5700 nM. For the same molecule, the IC50 [9] was 5700 nM and the IC50 [10] was 5700 nM.
In the case of `COc1ccc(Sc2cccc(C(=O)O[C@@H]3O[C@@H]4O[C@@]5(C)CC[C@H]6[C@H](C)[C@H](O)C[C@@H]([C@H]3C)[C@@]46OO5)c2)cc1`, the IC50 [11] is reported as 4300 nM, the IC50 [12] is reported as 4300 nM and the IC50 [13] is reported as 4300 nM.
In the case of `C[C@H]1[C@H](CCS(=O)(=O)CC[C@H]2O[C@@H]3O[C@@]4(C)CC[C@H]5[C@H](C)CC[C@@H]([C@H]2C)[C@@]35OO4)O[C@@H]2O[C@@]3(C)CC[C@H]4[C@H](C)CC[C@@H]1[C@@]24OO3`, the IC50 [8] is reported as 25 nM, the IC50 [14] is reported as 25 nM and the IC50 [15] is reported as 25 nM.
In the case of `COc1ccc2c(N3CCN(CCCNCCO[C@H]4O[C@@H]5O[C@@]6(C)CC[C@H]7[C@H](C)CC[C@@H]([C@H]4C)[C@@]57OO6)CC3)c3ccc(Cl)cc3nc2c1`, the IC50 [16] is reported as 800 nM.
For `C[C@H]1[C@@H](CC(COP(=O)(O)Oc2ccccc2)C[C@H]2O[C@@H]3O[C@]4(C)CC[C@H]5[C@H](C)CC[C@@H]([C@H]2C)[C@@]35OO4)O[C@@H]2O[C@@]3(C)CC[C@H]4[C@H](C)CC[C@@H]1[C@@]24OO3` (some centres not stated), the IC50 [17] was 40 nM and the IC50 [18] was 40 nM.
For `Cc1c2ccncc2c(C)c2c1[nH]c1ccccc12` [ELLIPTECINE], the IC50 [19] was 810 nM, the IC50 [6] was 1700 nM and the IC50 [7] was 1700 nM. The IC50 [8] was 1700 nM, the IC50 [20] was 930 nM and the IC50 [9] was 1700 nM. It also gave an IC50 [10] of 1700 nM.
`C[C@H]1[C@@H](CCC(=O)Nc2cnc3ccccc3c2)O[C@@H]2O[C@@]3(C)CC[C@H]4[C@H](C)CC[C@@H]1[C@@]24OO3` gave an IC50 [21] of 49700 nM and an IC50 [22] of 36900 nM.
In the case of `COc1ccc2nc3cc(Cl)ccc3c(N3CCN(CCNCCO[C@H]4O[C@@H]5O[C@@]6(C)CC[C@H]7[C@H](C)CC[C@@H]([C@H]4C)[C@@]57OO6)CC3)c2c1`, the IC50 [16] is reported as 400 nM.
Molecule `COc1ccc(Sc2cccc(C(=O)O[C@@H]3O[C@@H]4O[C@@]5(C)CC[C@H]6[C@H](C)[C@H](OC(=O)c7cccc(Sc8ccc(OC)cc8)c7)C[C@@H]([C@H]3C)[C@@]46OO5)c2)cc1` has an IC50 [11] of 1600 nM, an IC50 [12] of 1600 nM and an IC50 [13] of 1600 nM.
For `C[C@H]1[C@@H](OC(=O)CCC(=O)NCC(C)(C)CNc2c3c4ccccc4nc-3n(C)c3ccc(Br)cc23)O[C@@H]2O[C@@]3(C)CC[C@H]4[C@H](C)CC[C@@H]1[C@@]24OO3`, the IC50 [23] was 72 nM, the IC50 [24] was 72 nM and the IC50 [25] was 72 nM.
With `COC(=O)c1ccc2c(c1)c(NCC(C)(C)CNC(=O)CCC(=O)O[C@H]1O[C@@H]3O[C@@]4(C)CC[C@H]5[C@H](C)CC[C@@H]([C@H]1C)[C@@]35OO4)c1c3ccccc3nc-1n2C` the IC50 [23] was 72 nM, the IC50 [24] was 72 nM and the IC50 [25] was 72 nM.
